Test results: patent US4698350A, “1-ethyl-6-fluoro-1,4-dihydro- 7-(2,6-dimethyl-4-pyridinyl)-4-oxo-3-quinolinecarboxylic acid and antibacterial use thereof” (Sterling Drug Inc., priority 1984, dated 1987)
Values after ≈ are worked out from the molar mass of the structure shown. Counter-ions that a name gives are not always drawn.

How the values were obtained:
Experiment in all cases: In vitro antibacterial MIC/MBC test
Format in all cases: cell-based
S. aureus Smith = settings: Staphylococcus aureus, S. aureus Smith; for MBC: read-out: MBC; for MIC: read-out: MIC
Protocol: (§1) Win 52,522 and Win 35,439 were solubilized in 0.1 ml of 0.5 N NaOH/mg of compound and diluted in sterile distilled water to 160 mcg/ml. Vancomycin and methicillin were solubilized in sterile distilled water to 1250 mcg/ml of base compound. The stock solutions were sterilized by filtration through membrane filters with a 0.45 μm pore size.
(§2) The bacterial cultures listed in Table I (hereinbelow) were grown overnight at 37° C. in MHB for all cultures except the Streptococcus strains. These were grown in BHI+10% NHS. The overnight broth cultures were adjusted to an optical density of 0.10 (650 nm, B L Spectronic 20) in sterile distilled water and subsequently diluted to 6.7×10^6 cells/ml in MHB or BHI+1% NHS.
(§3) Serial two-fold dilutions of the compound solutions were prepared in MHB (or in BHI+1% NHS for tests with Streptococci) and dispensed into 96-well microtiter trays in a volume of 0.1 ml/well using a Sandy Springs (Bellco Glass Co.) dispenser. The trays were then inoculated with 0.0015 ml of a suspension containing 6.7×10^6 cells/ml of the appropriate inoculum using a MIC-2000 inoculator (Dynatech Corp.) resulting in a final inoculum of approximately 1×10^4 cells/well or 1×10^5 cells/ml. The trays were incubated at 37° C. for 18-20 hours and the minimal inhibitory concentration (MIC), defined as the lowest concentration of compound to inhibit visible bacterial growth, was recorded.
(§4) After the MIC values were recorded, the contents in the microtiter trays were thoroughly mixed on a Bellco Mini-orbital Shaker (Bellco Glass Co.) for 3 min. at a setting of 8. A portion (0.0015 ml) from each well was then transferred via an MIC-2000 inoculator to plates containing MHA or BHI agar+10% NHS. The plates were incubated at 37° C. for 18-20 hrs. The minimal bactericidal concentration (MBC), defined as the lowest concentration of compound that prevented the formation of a recognizable colony on the agar surface, was recorded.

S. pneumoniae Type I = settings: Streptococcus pneumoniae, S. pneumoniae Type I; for MBC: read-out: MBC; for MIC: read-out: MIC
Protocol: as §1, §2, §3, §4

S. aureus 21-81A = settings: Staphylococcus aureus, 2181A, S. aureus 21-81A; for MBC: read-out: MBC; for MIC: read-out: MIC
Protocol: as §1, §2, §3, §4

S. aureus S-234 = settings: Staphylococcus aureus, S234, S. aureus S-234; for MBC: read-out: MBC; for MIC: read-out: MIC
Protocol: as §1, §2, §3, §4

S. pneumoniae Type III = settings: Streptococcus pneumoniae, S. pneumoniae Type III; for MBC: read-out: MBC; for MIC: read-out: MIC
Protocol: as §1, §2, §3, §4

S. epidermidis 2-1-B = settings: Staphylococcus epidermidis, 21B, S. epidermidis 2-1-B; for MBC: read-out: MBC; for MIC: read-out: MIC
Protocol: as §1, §2, §3, §4

S. aureus S-500 = settings: Staphylococcus aureus, S500, S. aureus S-500; for MBC: read-out: MBC; for MIC: read-out: MIC
Protocol: as §1, §2, §3, §4

S. aureus Glorgio = settings: Staphylococcus aureus, S. aureus Glorgio; for MBC: read-out: MBC; for MIC: read-out: MIC
Protocol: as §1, §2, §3, §4

S. aureus 39881 = settings: Staphylococcus aureus, S. aureus 39881; for MBC: read-out: MBC; for MIC: read-out: MIC
Protocol: as §1, §2, §3, §4

S. aureus 24-81 = settings: Staphylococcus aureus, 2481, S. aureus 24-81; for MBC: read-out: MBC; for MIC: read-out: MIC
Protocol: as §1, §2, §3, §4

S. faecalis (8043) = settings: Enterococcus faecalis, ATCC8043, S. faecalis ATCC No. 8043; for MBC: read-out: MBC; for MIC: read-out: MIC
Protocol: as §1, §2, §3, §4

S. pyogenes C203 = settings: Streptococcus pyogenes, S. pyogenes C203; for MBC: read-out: MBC; for MIC: read-out: MIC
Protocol: as §1, §2, §3, §4

S. epidermidis (17917) = settings: Staphylococcus epidermidis, ATCC17917, S. epidermidis ATCC No. 17917; for MBC: read-out: MBC; for MIC: read-out: MIC
Protocol: as §1, §2, §3, §4

S. aureus 34-81 = settings: Staphylococcus aureus, 3481, S. aureus 34-81; for MBC: read-out: MBC; for MIC: read-out: MIC
Protocol: as §1, §2, §3, §4

S. faecalis 4510 = settings: Enterococcus faecalis, S. faecalis 4510; for MBC: read-out: MBC; for MIC: read-out: MIC
Protocol: as §1, §2, §3, §4

S. aureus 41-81 = settings: Staphylococcus aureus, 4181, S. aureus 41-81; for MBC: read-out: MBC; for MIC: read-out: MIC
Protocol: as §1, §2, §3, §4

S. aureus 10-81 = settings: Staphylococcus aureus, 1081, S. aureus 10-81; for MBC: read-out: MBC; for MIC: read-out: MIC
Protocol: as §1, §2, §3, §4

S. faecalis (11700) = settings: Enterococcus faecalis, ATCC11700, S. faecalis ATCC No. 11700; for MBC: read-out: MBC; for MIC: read-out: MIC
Protocol: as §1, §2, §3, §4

S. aureus 59-81 = settings: Staphylococcus aureus, 5981, S. aureus 59-81; for MBC: read-out: MBC; for MIC: read-out: MIC
Protocol: as §1, §2, §3, §4

S. aureus 13-8-A = settings: Staphylococcus aureus, 138A, S. aureus 13-8-A; for MBC: read-out: MBC; for MIC: read-out: MIC
Protocol: as §1, §2, §3, §4

S. enterococcus 0-2-13 = settings: 0213, S. enterococcus 0-2-13; for MBC: read-out: MBC; for MIC: read-out: MIC
Protocol: as §1, §2, §3, §4

S. pyogenes 7948-15 = settings: Streptococcus pyogenes, 794815, S. pyogenes 7948-15; for MBC: read-out: MBC; for MIC: read-out: MIC
Protocol: as §1, §2, §3, §4

SMILES: CCn1cc(C(=O)O)c(=O)c2ccc(-c3cc(C)nc(C)c3)cc21 [Win 35,439, 1-ethyl-1,4-dihydro-7-(2,6-dimethyl-4-pyridinyl)-4-oxo-3-quinolinecarboxylic acid]
- MBC (S. aureus Smith): 0.125 µg/mL (≈ 0.388 µM)
- MIC (S. aureus Smith): 0.125 µg/mL (≈ 0.388 µM)
- MBC (S. pneumoniae Type I): 2 µg/mL (≈ 6.2 µM)
- MIC (S. pneumoniae Type I): 2 µg/mL (≈ 6.2 µM)
- MBC (S. aureus 21-81A): 0.125 µg/mL (≈ 0.388 µM)
- MIC (S. aureus 21-81A): 0.06 µg/mL (≈ 0.186 µM)
- MBC (S. aureus S-234): 0.125 µg/mL (≈ 0.388 µM)
- MIC (S. aureus S-234): 0.06 µg/mL (≈ 0.186 µM)
- MBC (S. pneumoniae Type III): 4 µg/mL (≈ 12.4 µM)
- MIC (S. pneumoniae Type III): 4 µg/mL (≈ 12.4 µM)
- MBC (S. epidermidis 2-1-B): 0.25 µg/mL (≈ 0.776 µM)
- MIC (S. epidermidis 2-1-B): 0.25 µg/mL (≈ 0.776 µM)
- MBC (S. aureus S-500): 0.25 µg/mL (≈ 0.776 µM)
- MIC (S. aureus S-500): 0.125 µg/mL (≈ 0.388 µM)
- MBC (S. aureus Glorgio): 0.125 µg/mL (≈ 0.388 µM)
- MIC (S. aureus Glorgio): 0.03 µg/mL (≈ 0.0931 µM)
- MBC (S. aureus 39881): 0.06 µg/mL (≈ 0.186 µM)
- MIC (S. aureus 39881): 0.06 µg/mL (≈ 0.186 µM)
- MBC (S. aureus 24-81): 0.125 µg/mL (≈ 0.388 µM)
- MIC (S. aureus 24-81): 0.06 µg/mL (≈ 0.186 µM)
- MBC (S. faecalis (8043)): 2 µg/mL (≈ 6.2 µM)
- MIC (S. faecalis (8043)): 1 µg/mL (≈ 3.1 µM)
- MBC (S. pyogenes C203): > 16 µg/mL
- MIC (S. pyogenes C203): 4 µg/mL (≈ 12.4 µM)
- MBC (S. epidermidis (17917)): 0.5 µg/mL (≈ 1.55 µM)
- MIC (S. epidermidis (17917)): 0.5 µg/mL (≈ 1.55 µM)
- MBC (S. aureus 34-81): 0.06 µg/mL (≈ 0.186 µM)
- MIC (S. aureus 34-81): 0.06 µg/mL (≈ 0.186 µM)
- MBC (S. faecalis 4510): 0.5 µg/mL (≈ 1.55 µM)
- MIC (S. faecalis 4510): 0.5 µg/mL (≈ 1.55 µM)
- MBC (S. aureus 41-81): 0.25 µg/mL (≈ 0.776 µM)
- MIC (S. aureus 41-81): 0.06 µg/mL (≈ 0.186 µM)
- MBC (S. aureus 10-81): 0.125 µg/mL (≈ 0.388 µM)
- MIC (S. aureus 10-81): 0.125 µg/mL (≈ 0.388 µM)
- MBC (S. faecalis (11700)): 1 µg/mL (≈ 3.1 µM)
- MIC (S. faecalis (11700)): 1 µg/mL (≈ 3.1 µM)
- MBC (S. aureus 59-81): 0.25 µg/mL (≈ 0.776 µM)
- MIC (S. aureus 59-81): 0.125 µg/mL (≈ 0.388 µM)
- MBC (S. aureus 13-8-A): 0.125 µg/mL (≈ 0.388 µM)
- MIC (S. aureus 13-8-A): 0.06 µg/mL (≈ 0.186 µM)
- MBC (S. enterococcus 0-2-13): 2 µg/mL (≈ 6.2 µM)
- MIC (S. enterococcus 0-2-13): 2 µg/mL (≈ 6.2 µM)
- MBC (S. pyogenes 7948-15): > 16 µg/mL
- MIC (S. pyogenes 7948-15): 4 µg/mL (≈ 12.4 µM)

SMILES: COc1cccc(OC)c1C(=O)N[C@@H]1C(=O)N2[C@@H]1SC(C)(C)[C@@H]2C(=O)O [Methicillin, 6-(2,6-dimethoxybenzamido)penicillanic acid sodium salt]
- MBC (S. aureus Smith): 1 µg/mL
- MIC (S. aureus Smith): 1 µg/mL
- MBC (S. pneumoniae Type I): ≤ 0.06 µg/mL
- MIC (S. pneumoniae Type I): ≤ 0.06 µg/mL
- MBC (S. aureus 21-81A): 1 µg/mL
- MIC (S. aureus 21-81A): 1 µg/mL
- MBC (S. aureus S-234): 32 µg/mL
- MIC (S. aureus S-234): 8 µg/mL
- MBC (S. pneumoniae Type III): 0.125 µg/mL
- MIC (S. pneumoniae Type III): 0.125 µg/mL
- MBC (S. epidermidis 2-1-B): 2 µg/mL
- MIC (S. epidermidis 2-1-B): 1 µg/mL
- MBC (S. aureus S-500): 32 µg/mL
- MIC (S. aureus S-500): 8 µg/mL
- MBC (S. aureus Glorgio): 4 µg/mL
- MIC (S. aureus Glorgio): 2 µg/mL
- MBC (S. aureus 39881): > 125 µg/mL
- MIC (S. aureus 39881): 125 µg/mL
- MBC (S. aureus 24-81): 2 µg/mL
- MIC (S. aureus 24-81): 1 µg/mL
- MBC (S. faecalis (8043)): > 125 µg/mL
- MIC (S. faecalis (8043)): > 125 µg/mL
- MBC (S. pyogenes C203): 0.125 µg/mL
- MIC (S. pyogenes C203): 0.125 µg/mL
- MBC (S. epidermidis (17917)): 4 µg/mL
- MIC (S. epidermidis (17917)): 4 µg/mL
- MBC (S. aureus 34-81): 2 µg/mL
- MIC (S. aureus 34-81): 1 µg/mL
- MBC (S. faecalis 4510): 64 µg/mL
- MIC (S. faecalis 4510): 64 µg/mL
- MBC (S. aureus 41-81): 1 µg/mL
- MIC (S. aureus 41-81): 1 µg/mL
- MBC (S. aureus 10-81): 16 µg/mL
- MIC (S. aureus 10-81): 8 µg/mL
- MBC (S. faecalis (11700)): 64 µg/mL
- MIC (S. faecalis (11700)): 64 µg/mL
- MBC (S. aureus 59-81): 64 µg/mL
- MIC (S. aureus 59-81): 32 µg/mL
- MBC (S. aureus 13-8-A): 2 µg/mL
- MIC (S. aureus 13-8-A): 1 µg/mL
- MBC (S. enterococcus 0-2-13): 8 µg/mL
- MIC (S. enterococcus 0-2-13): 8 µg/mL
- MBC (S. pyogenes 7948-15): 0.125 µg/mL
- MIC (S. pyogenes 7948-15): 0.25 µg/mL
